Laboratory results published in publication PMC10124904, “Activation of Gcn2 by small molecules designed to be inhibitors” (The Journal of Biological Chemistry, 2023).
Several values for one entry are separate records, joined by “and”; a condition that tells them apart may be missing. Equal values may be shown once.

What was measured:
Format in all cases: cell-based
[1] = target: T1, Flag-Gcn2 M2 (F1143L/R1144L) (Homo sapiens, UniProt Q9P2K8, F1143L/R1144L); assay: Atf4-Luc translational reporter, Gcn2 KO HEK293 cells expressing Flag-Gcn2 M2; conditions: 50 nM Gcn2iB, 1 μM neratinib, 2 μM dovitinib or 2 μM dabrafenib, 6 h
T1 construct: Transomic Technologies) was inserted into pCDNA5; expressed in transfected cells; host or cells: HEK293 Gcn2 KO cells, transient transfection
Excerpt: (§1) The human Gcn2 coding sequence from pENTR223-1 Gcn2 (NM_001013703; Transomic Technologies) was inserted into pCDNA5 to create an amino-terminal 3× flag tag fusion with Gcn2 by using an In-Fusion HD cloning kit and a three-way cloning reaction method. The resulting plasmid pCDNA5-Gcn2, referred to in the text as Flag-Gcn2, was used as a template to construct the mutant versions detailed in Table 1 by site-directed mutagenesis using an In-Fusion HD cloning kit (Takara Bio). The Gcn2 expressing plasmid was introduced transiently into the HEK293-Gcn2 KO cells as described in the following complementation section. Plasmid pMSCV-Gadd34-puro contains the human Gadd34 (PPP1R15A, NM_014330.5) gene subcloned into the NcoI/EcoRI sites of the retroviral vector pMSCV-puro ([24]).
(§2) For translational reporter assays, HEK293-Gcn2 KO cells were cotransfected with WT or mutant Gcn2 and the reporter Atf4-Luc and nano-luciferase plasmids and then treated with HF or Gcn2iB. Gcn2 activity was measured in a dual luciferase assay. To perform this experiment, HEK293-Gcn2 KO cells were seeded into 12-well plates at 50,000 cells/well. […] The Atf4-Luc and nano-luciferase signals were measured with Nano-Glo Dual-Luciferase Reporter Assay kit (Promega Cat #N1620) using a Turner Biosystems 20/20 luminometer. […]

Gcn2 [2] = target: T2, Gcn2 (Homo sapiens, UniProt Q9P2K8); assay: P(AAREx6)-Luc Atf4 transcriptional activity reporter in HEK293 cells; conditions: for dose response of Atf4 activity (P(AAREx6)-Luc): 2× serial dilution from 78 nM to 20 μM
T2 construct: HEK293 cells expressing endogenous WT Gcn2 (End WT); endogenous in cells; host or cells: HEK293 (HEK293A with integrated P(AAREx6)-Luc; HEK293/HEK293T)
Method: HEK-derived cells were used in this study. HEK293T cells were obtained from American Type Culture Collection. HEK293A cells were purchased from Invitrogen. Cells were cultured in Dulbecco's modified Eagle's medium (DMEM) (Corning 10-013-CV) supplemented with 10% (vol/vol) fetal bovine serum (Corning 35-010-CV), 100 U/ml penicillin, and 0.1 mg/ml streptomycin (Hyclone SV30010), hereafter referred to as DMEM complete, at 37 °C in 5% CO2 humidified incubator. […] To create cells stably expressing a luciferase reporter for Atf4 transcription activity, HEK293A cells were transduced with a lentivirus encoding an Atf4 transcription reporter (P(AAREx6)-Luc), which consists of six copies of C/ebp-Atf4 consensus binding sequence (5′-[…]-3′) upstream of a minimal promoter followed by the firefly luciferase coding sequence. Selection of the stable expression of the luciferase reporter was selected in DMEM complete supplemented with 1 μg/ml puromycin.
For transcriptional reporter assays, HEK293-P(AAREx6)-Luc cells were seeded into 96-well plate at 10,000 cells/well and cultured in DMEM complete at 37 °C with 5% CO2 overnight. After 24 h, cells were treated with HF or Gcn2iB, as indicated. After 6 h of culture, the media was replaced with 1:1 dilution of DMEM complete to Bio-Glo luciferase assay reagent (Promega Cat # G7940). The assay plate was incubated at room temperature for 15 min at 200 rpm on rotary plate shaker and then luminescence was read on BioTek Synergy H1 microplate reader using 1 s integration time and gain setting between 135 and 200. Luciferase activity was measured as luminescence for each of three experiments per treatment.

Flag-Gcn2 T899A = target: T3, Flag-Gcn2 T899A (Homo sapiens, UniProt Q9P2K8, T899A); assay: Atf4-Luc translational reporter, Gcn2 KO HEK293 cells expressing Flag-Gcn2 T899A; conditions: 6 h; for increase in Atf4-Luc activity: T899A Gcn2, 50 nM Gcn2iB, 1 μM neratinib, 2 μM dovitinib or 2 μM dabrafenib
T3 construct: Transomic Technologies) was inserted into pCDNA5; expressed in transfected cells; host or cells: HEK293 Gcn2 KO cells, transient transfection
Excerpt: as §1
(§3) For translational reporter assays, HEK293-Gcn2 KO cells were cotransfected with WT or mutant Gcn2 and the reporter Atf4-Luc and nano-luciferase plasmids and then treated with HF or Gcn2iB. Gcn2 activity was measured in a dual luciferase assay. To perform this experiment, HEK293-Gcn2 KO cells were seeded into 12-well plates at 50,000 cells/well. […] For experiments with Gadd34 expression, 100 ng of vector control or Gadd34 expression plasmid was included in the transfection. […] The Atf4-Luc and nano-luciferase signals were measured with Nano-Glo Dual-Luciferase Reporter Assay kit (Promega Cat #N1620) using a Turner Biosystems 20/20 luminometer. Firefly luciferase activity was normalized to nano-luciferase control for each of three biological replicates.

Flag-Gcn2 K619A = target: T4, Flag-Gcn2 K619A (Homo sapiens, UniProt Q9P2K8, K619A); assay: Atf4-Luc translational reporter, Gcn2 KO HEK293 cells expressing Flag-Gcn2 K619A; conditions: 50 nM Gcn2iB, 1 μM neratinib, 2 μM dovitinib or 2 μM dabrafenib, 6 h
T4 construct: Transomic Technologies) was inserted into pCDNA5; expressed in transfected cells; host or cells: HEK293 Gcn2 KO cells, transient transfection
Excerpt: as §1, §3

Gcn2 [3] = target: T2, Gcn2; assay: Atf4-Luc translational reporter in HEK293 cells (endogenous Gcn2); conditions: 6 h
Gcn2 [4] = target: T2, Gcn2; assay: Immunoblot of ISR markers (p-Gcn2, p-eIF2α, Atf4) in HEK293 cells with endogenous Gcn2 (End. WT)
Flag-Gcn2 M802V = target: T5, Flag-Gcn2 M802V (Homo sapiens, UniProt Q9P2K8, M802V); assay: Atf4-Luc translational reporter, Gcn2 KO HEK293 cells expressing Flag-Gcn2 M802V; conditions: 4 nM Gcn2iB, 6 h
T5 construct: Transomic Technologies) was inserted into pCDNA5; expressed in transfected cells; host or cells: HEK293 Gcn2 KO cells, transient transfection
Excerpt: as §1, §2

Flag-Gcn2 WT = target: T6, Flag-Gcn2 WT (Homo sapiens, UniProt Q9P2K8); assay: Atf4-Luc translational reporter, Gcn2 KO HEK293 cells expressing Flag-Gcn2 WT; conditions: 50 nM Gcn2iB vs vehicle, 6 h
T6 construct: Transomic Technologies) was inserted into pCDNA5; expressed in transfected cells; host or cells: HEK293 Gcn2 KO cells, transient transfection of pCDNA5-Gcn2
Excerpt: as §1, §2

Flag-Gcn2 M802F = target: T7, Flag-Gcn2 M802F (Homo sapiens, UniProt Q9P2K8, M802F); assay: Atf4-Luc translational reporter, Gcn2 KO HEK293 cells expressing Flag-Gcn2 M802F; conditions: Gcn2iB concentrations up to 4 μM, 6 h
T7 construct: Transomic Technologies) was inserted into pCDNA5; expressed in transfected cells; host or cells: HEK293 Gcn2 KO cells, transient transfection
Excerpt: as §1, §2

[5] = 25 nM HF, time course up to 6 h
[6] = 2 μM tunicamycin, 6 h, immunoblot
[7] = Gcn2iB pretreatment 30 min, then 12.5 nM HF 6 h

T2 sequence (Q9P2K8 whole entry): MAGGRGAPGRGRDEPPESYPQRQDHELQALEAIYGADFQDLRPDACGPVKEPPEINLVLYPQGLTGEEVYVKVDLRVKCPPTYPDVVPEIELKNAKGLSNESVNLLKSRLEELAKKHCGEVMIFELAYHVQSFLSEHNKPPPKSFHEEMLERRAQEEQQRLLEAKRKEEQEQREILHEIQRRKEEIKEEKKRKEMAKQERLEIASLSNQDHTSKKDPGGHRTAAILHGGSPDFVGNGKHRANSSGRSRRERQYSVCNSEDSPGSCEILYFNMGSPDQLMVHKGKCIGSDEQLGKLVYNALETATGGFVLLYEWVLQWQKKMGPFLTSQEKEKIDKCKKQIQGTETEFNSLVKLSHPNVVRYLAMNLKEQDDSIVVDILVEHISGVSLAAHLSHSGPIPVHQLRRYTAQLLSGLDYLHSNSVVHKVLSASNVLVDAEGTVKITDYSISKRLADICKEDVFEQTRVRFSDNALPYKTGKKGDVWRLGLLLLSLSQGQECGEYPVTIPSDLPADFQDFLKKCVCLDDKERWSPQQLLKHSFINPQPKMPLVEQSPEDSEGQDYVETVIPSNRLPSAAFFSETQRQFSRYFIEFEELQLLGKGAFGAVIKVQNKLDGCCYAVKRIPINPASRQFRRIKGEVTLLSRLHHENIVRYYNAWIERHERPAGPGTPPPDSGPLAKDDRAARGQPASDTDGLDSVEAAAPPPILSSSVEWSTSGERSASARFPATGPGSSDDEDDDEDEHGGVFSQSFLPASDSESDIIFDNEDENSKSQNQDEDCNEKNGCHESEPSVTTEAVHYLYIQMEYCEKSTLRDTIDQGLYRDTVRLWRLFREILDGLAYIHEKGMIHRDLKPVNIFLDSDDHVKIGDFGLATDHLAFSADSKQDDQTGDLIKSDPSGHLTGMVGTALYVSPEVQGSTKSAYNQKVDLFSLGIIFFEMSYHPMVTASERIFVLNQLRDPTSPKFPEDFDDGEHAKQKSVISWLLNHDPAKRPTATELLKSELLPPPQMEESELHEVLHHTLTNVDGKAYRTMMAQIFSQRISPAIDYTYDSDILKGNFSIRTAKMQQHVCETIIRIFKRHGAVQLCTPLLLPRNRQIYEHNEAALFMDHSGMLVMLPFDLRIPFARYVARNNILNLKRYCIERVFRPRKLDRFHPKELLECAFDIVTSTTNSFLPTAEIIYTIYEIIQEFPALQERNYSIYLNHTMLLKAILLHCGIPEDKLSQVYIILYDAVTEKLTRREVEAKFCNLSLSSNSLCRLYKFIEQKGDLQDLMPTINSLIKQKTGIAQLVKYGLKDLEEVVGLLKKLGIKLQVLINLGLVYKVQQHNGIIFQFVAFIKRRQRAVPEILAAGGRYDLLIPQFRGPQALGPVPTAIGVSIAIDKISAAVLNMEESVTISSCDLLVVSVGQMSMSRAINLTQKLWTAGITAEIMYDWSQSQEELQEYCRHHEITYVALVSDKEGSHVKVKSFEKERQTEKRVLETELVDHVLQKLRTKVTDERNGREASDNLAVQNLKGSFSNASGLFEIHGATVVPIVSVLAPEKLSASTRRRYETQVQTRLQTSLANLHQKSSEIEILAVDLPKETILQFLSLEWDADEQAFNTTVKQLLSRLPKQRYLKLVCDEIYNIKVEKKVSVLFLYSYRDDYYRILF
T3 sequence (Q9P2K8 whole entry T899A): as the sequence (Q9P2K8 whole entry) above, with T899A counted along it
T4 sequence (Q9P2K8 whole entry K619A): as the sequence (Q9P2K8 whole entry) above, with K619A counted along it
T6 sequence (Q9P2K8 whole entry): as the sequence (Q9P2K8 whole entry) above
T1 sequence (Q9P2K8 whole entry F1143L/R1144L): as the sequence (Q9P2K8 whole entry) above, with F1143L, R1144L counted along it
T7 sequence (Q9P2K8 whole entry M802F): as the sequence (Q9P2K8 whole entry) above, with M802F counted along it
T5 sequence (Q9P2K8 whole entry M802V): as the sequence (Q9P2K8 whole entry) above, with M802V counted along it

CCOc1cc2ncc(C#N)c(Nc3ccc(OCc4ccccn4)c(Cl)c3)c2cc1NC(=O)/C=C/CN(C)C [neratinib]
increase in Atf4-Luc activity [1]: able to increase Atf4-Luc activity
dose response of Atf4 activity (P(AAREx6)-Luc) (Gcn2 [2]; 6 h): biphasic induction
increase in Atf4-Luc activity (Flag-Gcn2 T899A): able to increase Atf4-Luc activity
increase in Atf4-Luc activity (Flag-Gcn2 K619A): no increase

CN1CCN(c2ccc3nc(-c4c(N)c5c(F)cccc5[nH]c4=O)[nH]c3c2)CC1 [dovitinib]
dose response of Atf4 activity (P(AAREx6)-Luc) (Gcn2 [2]; 6 h): biphasic induction
increase in Atf4-Luc activity (Flag-Gcn2 K619A): no increase

O=C(CC1NCCCC1O)Cn1cnc2cc(Br)c(Cl)cc2c1=O (stereo not drawn) [HF, Halofuginone]
Atf4-Luc expression (Gcn2 [3]; 25 nM HF alone): robust induction
time at which expression of Atf4 was enhanced (Gcn2 [4]; [5]): 1 h
time to increased p-Gcn2 and p-eIF2α (Gcn2 [4]; [5]): ≤ 30 min
Atf4 levels (Gcn2 [4]; 100 nM HF, 6 h, immunoblot): significant reduction
increase in luciferase signal (P(AAREx6)-Luc) (Gcn2 [2]; 12.5 nM HF, 6 h): approximately 30 fold
P(AAREx6)-Luc activity (Gcn2 [2]; 25 nM HF alone, 6 h): robust induction

tunicamycin
p-eIF2α and Atf4 (Gcn2 [4]; [6]): induced p-eIF2α and Atf4
phosphorylation of Gcn2 (T899) (Gcn2 [4]; [6]): minimal phosphorylation of Gcn2

O=C(COc1ccc(Cl)c(F)c1)NC12CC(NC(=O)c3cnc(C(F)F)cn3)(C1)C2 [2B-Act]
effect of cotreatment on Gcn2iB-induced p-eIF2α and Atf4 levels (Gcn2 [4]; 1 μM A-92 or 2 μM 2B-Act pretreatment 30 min, then 50 nM Gcn2iB 6 h): lowered p-eIF2α and Atf4 levels
effect on biphasic induction of luciferase activity by Gcn2iB (Gcn2 [2]; pretreated 30 min with 1 μM A-92 or 2 μM 2B-Act, then Gcn2iB 6 h): ablated

COc1ncc(Cl)cc1S(=O)(=O)Nc1ccc(F)c(C#Cc2cnc(N)nc2)c1F [Gcn2iB]
increase in Atf4-Luc activity relative to untreated M802V cells (Flag-Gcn2 M802V): 2 fold
effect on HF-induced Atf4-Luc expression (Gcn2 [3]; 25 nM HF + 2 μM Gcn2iB): sharply diminished
increase in Atf4-Luc activity [1]: able to increase Atf4-Luc activity
time of maximal Atf4 expression (Gcn2 [4]; 50 nM Gcn2iB time course up to 6 h, WT cells): 6 h
induction of p-eIF2α (Gcn2 [4]; 50 nM Gcn2iB time course, WT cells, detected as early as 30 min): 2.7 fold
Gcn2iB concentration giving reductions in HF-induced Atf4 (Gcn2 [4]; [7]): ≥ 250 nM
Gcn2iB concentration giving reductions in HF-induced p-Gcn2 (Gcn2 [4]; [7]): ≥ 62.5 nM
Gcn2iB concentration above which p-Gcn2 was lowered below vehicle and Atf4 not appreciably induced (Gcn2 [4]; absence of HF, 6 h): Above 250 nM
effect on HF-induced P(AAREx6)-Luc activity (Gcn2 [2]; 25 nM HF + 2 μM Gcn2iB, 6 h): sharply reduced
Gcn2iB concentration at peak induction of luciferase activity (Gcn2 [2]; Gcn2iB only, absence of HF, 6 h): about 32 nM
peak induction of luciferase activity (P(AAREx6)-Luc) (Gcn2 [2]; Gcn2iB only, absence of HF, 6 h, biphasic): 7.8 fold
IC50 (Gcn2 [2]; Gcn2iB pretreatment 30 min, then 12.5 nM HF 6 h, read-out: IC50 for diminishing HF-induced P(AAREx6)-Luc luciferase signal): 73 nM
Levels Atf4-Luc, fold change upon treatment (Flag-Gcn2 WT): 2.7 fold and 3 fold
Atf4-Luc activity in Gcn2iB dose response (Flag-Gcn2 M802F): maintained the same level of Atf4-Luc activity
Levels Atf4-Luc, fold change upon treatment (Flag-Gcn2 T899A; 50 nM Gcn2iB vs vehicle, Flag-Gcn2 T899A): 2.8 fold
increase in Atf4-Luc activity (Flag-Gcn2 T899A): able to increase Atf4-Luc activity
increase in Atf4-Luc activity (Flag-Gcn2 K619A): no increase
